One block for each compound: values may come before it. The source made the active and inactive calls. The rule behind the calls is not given here.
Columns and labels:
EA.hy 926 [1] = test: Cytotoxicity against human EA.hy 926 cells; assay type: toxicity, cell-based
[2] = biological target: T1, von Hippel-Lindau disease tumor suppressor/Vascular endothelial growth factor receptor 2 (Homo sapiens, UniProt P35968+P40337); test: Protac activity at VHL E3 ubiquitin ligase/VEGFR-2 in human EA.hy 926 cells assessed as degradation of VEGFR-2 protein at […]; assay type: cell-based
Target sequence in this assay (P35968 20-1356 limits assumed): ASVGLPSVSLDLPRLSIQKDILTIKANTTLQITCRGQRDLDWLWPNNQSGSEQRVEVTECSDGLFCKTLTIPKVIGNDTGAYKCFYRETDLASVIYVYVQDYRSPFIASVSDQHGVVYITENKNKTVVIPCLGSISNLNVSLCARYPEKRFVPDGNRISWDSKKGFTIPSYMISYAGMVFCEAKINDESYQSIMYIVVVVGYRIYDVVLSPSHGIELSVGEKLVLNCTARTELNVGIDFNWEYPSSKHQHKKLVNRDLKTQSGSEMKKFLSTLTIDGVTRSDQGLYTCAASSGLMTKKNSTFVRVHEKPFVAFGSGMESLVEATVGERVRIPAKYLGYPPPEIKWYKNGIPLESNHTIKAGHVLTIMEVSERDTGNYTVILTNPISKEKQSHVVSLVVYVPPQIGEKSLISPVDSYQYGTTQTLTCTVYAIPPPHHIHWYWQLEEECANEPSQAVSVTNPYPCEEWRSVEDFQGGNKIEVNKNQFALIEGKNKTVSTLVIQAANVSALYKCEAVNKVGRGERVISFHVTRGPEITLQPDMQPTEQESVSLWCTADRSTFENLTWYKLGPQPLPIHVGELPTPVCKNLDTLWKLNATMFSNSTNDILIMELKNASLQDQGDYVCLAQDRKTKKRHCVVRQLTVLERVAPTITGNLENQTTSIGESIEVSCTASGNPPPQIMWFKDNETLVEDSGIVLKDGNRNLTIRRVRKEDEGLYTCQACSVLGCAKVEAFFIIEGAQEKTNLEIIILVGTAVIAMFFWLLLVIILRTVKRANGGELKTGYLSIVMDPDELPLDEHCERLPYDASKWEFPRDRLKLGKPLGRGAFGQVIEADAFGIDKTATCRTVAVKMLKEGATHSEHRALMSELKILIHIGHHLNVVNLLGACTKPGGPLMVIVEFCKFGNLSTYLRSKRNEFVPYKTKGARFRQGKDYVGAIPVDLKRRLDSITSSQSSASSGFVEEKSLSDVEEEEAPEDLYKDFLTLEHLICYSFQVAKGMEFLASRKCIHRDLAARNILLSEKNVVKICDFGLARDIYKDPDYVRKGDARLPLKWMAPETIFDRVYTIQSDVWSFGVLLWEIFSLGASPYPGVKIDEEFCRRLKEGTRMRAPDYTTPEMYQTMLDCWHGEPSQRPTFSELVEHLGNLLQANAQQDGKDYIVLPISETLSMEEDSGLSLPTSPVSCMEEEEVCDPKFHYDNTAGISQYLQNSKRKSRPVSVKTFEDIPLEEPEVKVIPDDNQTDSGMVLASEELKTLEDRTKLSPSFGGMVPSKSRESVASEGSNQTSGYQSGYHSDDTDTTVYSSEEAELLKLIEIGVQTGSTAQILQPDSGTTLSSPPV
Target sequence in this assay (P40337 whole entry partner): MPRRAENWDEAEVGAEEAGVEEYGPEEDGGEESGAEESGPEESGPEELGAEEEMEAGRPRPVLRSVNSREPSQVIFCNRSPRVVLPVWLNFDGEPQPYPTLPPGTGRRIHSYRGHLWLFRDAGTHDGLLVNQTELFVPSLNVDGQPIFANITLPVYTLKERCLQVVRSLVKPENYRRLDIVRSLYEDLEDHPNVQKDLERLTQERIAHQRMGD

[3] = biological target: T1, von Hippel-Lindau disease tumor suppressor/Vascular endothelial growth factor receptor 2; test: Protac activity at VHL E3 ubiquitin ligase/VEGFR-2 (unknown origin) assessed as […] by ADP-Glo Kinase assay
Target sequence in this assay (P35968 whole entry): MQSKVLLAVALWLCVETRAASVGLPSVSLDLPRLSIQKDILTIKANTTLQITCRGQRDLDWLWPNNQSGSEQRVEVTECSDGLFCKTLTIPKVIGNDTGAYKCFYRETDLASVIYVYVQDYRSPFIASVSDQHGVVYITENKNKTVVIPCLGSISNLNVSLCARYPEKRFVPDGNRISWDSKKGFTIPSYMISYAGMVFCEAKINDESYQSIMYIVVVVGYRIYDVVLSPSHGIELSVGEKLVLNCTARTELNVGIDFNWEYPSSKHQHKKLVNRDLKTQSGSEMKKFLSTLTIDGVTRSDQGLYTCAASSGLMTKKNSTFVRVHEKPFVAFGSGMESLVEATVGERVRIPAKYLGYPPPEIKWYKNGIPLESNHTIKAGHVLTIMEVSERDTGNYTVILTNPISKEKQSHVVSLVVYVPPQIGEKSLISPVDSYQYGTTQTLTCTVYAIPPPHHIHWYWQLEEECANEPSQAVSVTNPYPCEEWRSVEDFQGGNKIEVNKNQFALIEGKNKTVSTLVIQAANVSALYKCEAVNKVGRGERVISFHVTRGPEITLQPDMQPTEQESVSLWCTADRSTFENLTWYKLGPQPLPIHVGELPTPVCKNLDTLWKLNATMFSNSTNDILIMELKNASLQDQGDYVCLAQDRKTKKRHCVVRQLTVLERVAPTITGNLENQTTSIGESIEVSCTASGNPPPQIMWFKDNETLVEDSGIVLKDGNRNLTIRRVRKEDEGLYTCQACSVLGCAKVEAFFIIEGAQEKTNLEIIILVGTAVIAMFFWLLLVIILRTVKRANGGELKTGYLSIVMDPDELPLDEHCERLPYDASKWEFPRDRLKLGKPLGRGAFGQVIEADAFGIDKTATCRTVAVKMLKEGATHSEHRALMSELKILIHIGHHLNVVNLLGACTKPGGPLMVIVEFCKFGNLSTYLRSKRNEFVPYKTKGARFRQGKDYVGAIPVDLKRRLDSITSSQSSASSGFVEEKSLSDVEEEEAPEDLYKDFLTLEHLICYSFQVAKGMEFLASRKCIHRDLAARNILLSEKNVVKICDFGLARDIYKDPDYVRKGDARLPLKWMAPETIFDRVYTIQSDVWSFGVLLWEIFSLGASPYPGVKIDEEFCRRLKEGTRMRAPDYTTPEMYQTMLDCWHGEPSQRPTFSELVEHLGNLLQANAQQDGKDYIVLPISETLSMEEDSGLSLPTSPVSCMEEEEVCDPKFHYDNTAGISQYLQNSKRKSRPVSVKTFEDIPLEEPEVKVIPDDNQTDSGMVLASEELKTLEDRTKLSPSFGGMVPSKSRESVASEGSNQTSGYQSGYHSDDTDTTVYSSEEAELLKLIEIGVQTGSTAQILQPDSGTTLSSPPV
Target sequence in this assay (P40337 whole entry): as the sequence (P40337 whole entry partner) above

[4] = Antiproliferative activity against human EA.hy 926 cells assessed as inhibition of cell growth; assay type: toxicity, cell-based
A549 = test: Antiproliferative activity against human A549 cells assessed as inhibition of cell growth; assay type: functional, cell-based
MDA-MB-453 = test: Antiproliferative activity against human MDA-MB-453 cells assessed as inhibition of cell growth; assay type: functional, cell-based
HEK293 = test: Cytotoxicity against human HEK293 cells assessed as inhibition of cell growth; assay type: toxicity, cell-based
[5] = biological target: T2, von Hippel-Lindau disease tumor suppressor/Serine/threonine-protein kinase B-raf (Homo sapiens) (UniProt P15056+P40337); test: Protac activity at E3 ubiquitin ligase/BRAF in human EA.hy 926 cells assessed as degradation of BRAF protein at 10 to 60 uM incubated for 48 hrs by western blot assay; assay type: cell-based; settings: dose 10-60 µM
[6] = biological target: T1, von Hippel-Lindau disease tumor suppressor/Vascular endothelial growth factor receptor 2; test: Protac activity at VHL E3 ubiquitin ligase/VEGFR-2 in human EA.hy 926 cells assessed as degradation of VEGFR-2 protein at 10 to 60 uM incubated for 48 hrs by western blot assay; assay type: cell-based; settings: dose 10-60 µM
Target sequence in this assay (P35968 20-1356 limits assumed): as the sequence (P35968 20-1356 limits assumed) above
Target sequence in this assay (P40337 whole entry partner): as the sequence (P40337 whole entry partner) above

[7] = biological target: T2, von Hippel-Lindau disease tumor suppressor/Serine/threonine-protein kinase B-raf (Homo sapiens); test: Protac activity at E3 ubiquitin ligase/BRAF in human EA.hy 926 cells assessed as degradation of BRAF protein at 30 uM preincubated with VH032 for 2 hrs followed by compound addition and measured after 48 hrs by Western blot analysis; assay type: cell-based
[8] = biological target: T2, von Hippel-Lindau disease tumor suppressor/Serine/threonine-protein kinase B-raf (Homo sapiens); test: Protac activity at E3 ubiquitin ligase/BRAF in human EA.hy 926 cells assessed as degradation of BRAF protein at 30 uM preincubated with S5 for 2 hrs followed by compound addition and measured after 48 hrs by Western blot analysis; assay type: cell-based
[9] = biological target: T1, von Hippel-Lindau disease tumor suppressor/Vascular endothelial growth factor receptor 2; test: Protac activity at VHL E3 ubiquitin ligase/VEGFR-2 in human EA.hy 926 cells assessed as degradation of VEGFR-2 protein preincubated with carfilzomib; assay type: cell-based
Target sequence in this assay (P35968 20-1356 limits assumed): as the sequence (P35968 20-1356 limits assumed) above
Target sequence in this assay (P40337 whole entry partner): as the sequence (P40337 whole entry partner) above

EA.hy 926 [10] = test: Induction of apoptosis in human EA.hy 926 cells assessed as viable cells at 0.1 uM incubated for 72 hrs by annexin-V/PI staining based flow cytometry analysis (reference value: 93.8%); assay type: functional; settings: read-out: Activity
EA.hy 926 [11] = test: Induction of apoptosis in human EA.hy 926 cells assessed as early apoptotic cells at 0.1 uM incubated for 72 hrs by annexin-V/PI staining based flow cytometry analysis (reference value: 0.71%); assay type: functional
EA.hy 926 [12] = test: Induction of apoptosis in human EA.hy 926 cells assessed as late apoptotic cells at 0.1 uM incubated for 72 hrs by annexin-V/PI staining based flow cytometry analysis (reference value: 3.07%); assay type: functional
EA.hy 926 [13] = test: Induction of apoptosis in human EA.hy 926 cells assessed as necrotic cells at 0.1 uM incubated for 72 hrs by annexin-V/PI staining based flow cytometry analysis (reference value: 2.34%); assay type: functional
EA.hy 926 [14] = test: Induction of apoptosis in human EA.hy 926 cells assessed as viable cells at 1 uM incubated for 72 hrs by annexin-V/PI staining based flow cytometry analysis (reference value: 93.8%); assay type: functional; settings: read-out: Activity
EA.hy 926 [15] = test: Induction of apoptosis in human EA.hy 926 cells assessed as early apoptotic cells at 1 uM incubated for 72 hrs by annexin-V/PI staining based flow cytometry analysis (reference value: 0.71%); assay type: functional
EA.hy 926 [16] = test: Induction of apoptosis in human EA.hy 926 cells assessed as late apoptotic cells at 1 uM incubated for 72 hrs by annexin-V/PI staining based flow cytometry analysis (reference value: 3.07%); assay type: functional
EA.hy 926 [17] = test: Induction of apoptosis in human EA.hy 926 cells assessed as necrotic cells at 1 uM incubated for 72 hrs by annexin-V/PI staining based flow cytometry analysis (reference value: 2.34%); assay type: functional
EA.hy 926 [18] = test: Induction of apoptosis in human EA.hy 926 cells assessed as viable cells at 10 uM incubated for 72 hrs by annexin-V/PI staining based flow cytometry analysis (reference value: 93.8%); assay type: functional; settings: read-out: Activity
EA.hy 926 [19] = test: Induction of apoptosis in human EA.hy 926 cells assessed as early apoptotic cells at 10 uM incubated for 72 hrs by annexin-V/PI staining based flow cytometry analysis (reference value: 0.71%); assay type: functional
EA.hy 926 [20] = test: Induction of apoptosis in human EA.hy 926 cells assessed as late apoptotic cells at 10 uM incubated for 72 hrs by annexin-V/PI staining based flow cytometry analysis (reference value: 3.07%); assay type: functional
EA.hy 926 [21] = test: Induction of apoptosis in human EA.hy 926 cells assessed as necrotic cells at 10 uM incubated for 72 hrs by annexin-V/PI staining based flow cytometry analysis (reference value: 2.34%); assay type: functional
EA.hy 926 [22] = test: Induction of apoptosis in human EA.hy 926 cells assessed as viable cells at 20 uM incubated for 72 hrs by annexin-V/PI staining based flow cytometry analysis (reference value: 93.8%); assay type: functional; settings: read-out: Activity
EA.hy 926 [23] = test: Induction of apoptosis in human EA.hy 926 cells assessed as early apoptotic cells at 20 uM incubated for 72 hrs by annexin-V/PI staining based flow cytometry analysis (reference value: 0.71%); assay type: functional
EA.hy 926 [24] = test: Induction of apoptosis in human EA.hy 926 cells assessed as late apoptotic cells at 20 uM incubated for 72 hrs by annexin-V/PI staining based flow cytometry analysis (reference value: 3.07%); assay type: functional
EA.hy 926 [25] = test: Induction of apoptosis in human EA.hy 926 cells assessed as necrotic cells at 20 uM incubated for 72 hrs by annexin-V/PI staining based flow cytometry analysis (reference value: 2.34%); assay type: functional
EA.hy 926 [26] = test: Induction of apoptosis in human EA.hy 926 cells assessed as viable cells at 40 uM incubated for 72 hrs by annexin-V/PI staining based flow cytometry analysis (reference value: 93.8%); assay type: functional; settings: read-out: Activity
EA.hy 926 [27] = test: Induction of apoptosis in human EA.hy 926 cells assessed as early apoptotic cells at 40 uM incubated for 72 hrs by annexin-V/PI staining based flow cytometry analysis (reference value: 0.71%); assay type: functional
EA.hy 926 [28] = test: Induction of apoptosis in human EA.hy 926 cells assessed as late apoptotic cells at 40 uM incubated for 72 hrs by annexin-V/PI staining based flow cytometry analysis (reference value: 3.07%); assay type: functional
EA.hy 926 [29] = test: Induction of apoptosis in human EA.hy 926 cells assessed as necrotic cells at 40 uM incubated for 72 hrs by annexin-V/PI staining based flow cytometry analysis (reference value: 2.34%); assay type: functional
EA.hy 926 [30] = test: Induction of apoptosis in human EA.hy 926 cells at 0.1 to 40 uM incubated for 72 hrs by annexin-V/PI staining based flow cytometry analysis; assay type: functional, cell-based; settings: dose 0.1-40 µM
EA.hy 926 [31] = test: Induction of cell cycle arrest in human EA.hy 926 cells assessed as accumulation of cells at S pahse at 0.1 to 40 uM incubated for 48 hrs by propidium-iodide staining based flow cytometry analysis; assay type: functional; settings: dose 0.1-40 µM
[32] = biological target: T2, von Hippel-Lindau disease tumor suppressor/Serine/threonine-protein kinase B-raf (Homo sapiens); test: Protac activity at E3 ubiquitin ligase/BRAF in human EA.hy 926 cells assessed as degradation of BRAF protein at 40 uM incubated for 4 hrs by western blot assay; assay type: cell-based
[33] = biological target: T2, von Hippel-Lindau disease tumor suppressor/Serine/threonine-protein kinase B-raf (Homo sapiens); test: Protac activity at E3 ubiquitin ligase/BRAF in human EA.hy 926 cells assessed as degradation of BRAF protein at 40 uM incubated for 48 hrs by western blot assay; assay type: cell-based
[34] = biological target: T2, von Hippel-Lindau disease tumor suppressor/Serine/threonine-protein kinase B-raf (Homo sapiens); test: Protac activity at E3 ubiquitin ligase/BRAF in human EA.hy 926 cells assessed as degradation of BRAF protein at 40 uM incubated for 4 to 48 hrs by western blot assay; assay type: cell-based; settings: time 4-48 hrs, TDE = time-dependent effect
EA.hy 926 [35] = test: Induction of cell cycle arrest in human EA.hy 926 cells at 0.1 to 40 uM incubated for 48 hrs by propidium-iodide staining based flow cytometry analysis; assay type: functional; settings: dose 0.1-40 µM
[36] = biological target: T2, von Hippel-Lindau disease tumor suppressor/Serine/threonine-protein kinase B-raf (Homo sapiens); test: Protac activity at E3 ubiquitin ligase/BRAF in human HepG2 cells assessed as degradation of BRAF protein; assay type: cell-based
[37] = biological target: T2, von Hippel-Lindau disease tumor suppressor/Serine/threonine-protein kinase B-raf (Homo sapiens); test: Protac activity at E3 ubiquitin ligase/BRAF in human U87 cells assessed as degradation of BRAF protein; assay type: cell-based
[38] = biological target: T2, von Hippel-Lindau disease tumor suppressor/Serine/threonine-protein kinase B-raf (Homo sapiens); test: Protac activity at E3 ubiquitin ligase/BRAF in human MDA-MB-231 cells assessed as degradation of BRAF protein; assay type: cell-based

T2 sequence (P15056 whole entry, looked up): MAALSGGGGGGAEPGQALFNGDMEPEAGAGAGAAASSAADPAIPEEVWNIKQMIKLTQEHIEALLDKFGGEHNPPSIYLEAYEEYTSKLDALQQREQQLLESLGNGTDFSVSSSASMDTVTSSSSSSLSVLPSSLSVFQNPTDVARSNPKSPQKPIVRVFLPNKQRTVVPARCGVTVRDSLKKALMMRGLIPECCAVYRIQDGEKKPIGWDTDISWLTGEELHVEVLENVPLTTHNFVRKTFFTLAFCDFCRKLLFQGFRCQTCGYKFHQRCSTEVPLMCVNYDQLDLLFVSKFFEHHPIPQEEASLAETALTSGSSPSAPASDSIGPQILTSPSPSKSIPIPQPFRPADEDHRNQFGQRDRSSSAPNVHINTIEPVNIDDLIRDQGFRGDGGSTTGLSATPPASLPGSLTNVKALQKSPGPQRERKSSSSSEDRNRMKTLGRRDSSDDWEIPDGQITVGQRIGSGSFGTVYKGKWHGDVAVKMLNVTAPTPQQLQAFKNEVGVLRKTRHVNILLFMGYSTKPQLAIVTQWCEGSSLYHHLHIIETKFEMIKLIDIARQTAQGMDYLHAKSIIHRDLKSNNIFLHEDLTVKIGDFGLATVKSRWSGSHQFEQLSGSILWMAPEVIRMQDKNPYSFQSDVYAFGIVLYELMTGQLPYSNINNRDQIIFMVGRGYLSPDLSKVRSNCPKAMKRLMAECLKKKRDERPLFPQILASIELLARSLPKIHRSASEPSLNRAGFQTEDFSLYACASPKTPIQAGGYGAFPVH
T2 sequence (P40337 whole entry, looked up): as the sequence (P40337 whole entry partner) above

Activity [2]: Active
Compound: CC(C)C[C@H](NC(=O)[C@H](CCc1ccccc1)NC(=O)CN1CCOCC1)C(=O)N[C@@H](Cc1ccccc1)C(=O)N[C@@H](CC(C)C)C(=O)[C@@]1(C)CO1 [CARFILZOMIB]
Activity (EA.hy 926 [1]): Toxic

IC50 [3]: 0.0422 µM | IC50 (A549): > 100 µM | IC50 (MDA-MB-453): > 100 µM | Activity [5]: Active | Activity [6]: Active | Activity [7]: inactive | Activity [8]: inactive | Activity [9]: inactive
Compound: Cc1ncsc1-c1ccc(CNC(=O)[C@@H]2C[C@@H](O)CN2C(=O)[C@@H](NC(=O)CCCCCC(=O)n2nc(N)c3c(-c4cccc(NC(=O)Nc5cccc(Cl)c5)c4)cccc32)C(C)(C)C)cc1
IC50 [4]: 20 µM | Activity (HEK293): Non-Toxic | viability at 0.1 µM (EA.hy 926 [10]): 91.3% | Activity (EA.hy 926 [11]): 0.57% | Activity (EA.hy 926 [12]): 1.77% | Activity (EA.hy 926 [13]): 6.32% | viability at 1 µM (EA.hy 926 [14]): 93.1% | Activity (EA.hy 926 [15]): 0.96% | Activity (EA.hy 926 [16]): 3.2% | Activity (EA.hy 926 [17]): 2.75% | viability at 10 µM (EA.hy 926 [18]): 91.4% | Activity (EA.hy 926 [19]): 0.77% | Activity (EA.hy 926 [20]): 2.62% | Activity (EA.hy 926 [21]): 5.23% | viability at 20 µM (EA.hy 926 [22]): 88.1% | Activity (EA.hy 926 [23]): 0.86% | Activity (EA.hy 926 [24]): 3.93% | Activity (EA.hy 926 [25]): 7.08% | viability at 40 µM (EA.hy 926 [26]): 92.2% | Activity (EA.hy 926 [27]): 1.44% | Activity (EA.hy 926 [28]): 2.62% | Activity (EA.hy 926 [29]): 3.7% | Activity (EA.hy 926 [30]): Active | Activity (EA.hy 926 [31]): Active

IC50 (A549): 15.8 µM | IC50 (MDA-MB-453): > 100 µM
Compound: Nc1n[nH]c2cccc(-c3cccc(NC(=O)Nc4cccc(Cl)c4)c3)c12
IC50 [4]: 7.33 µM | Activity (HEK293): Non-Toxic

IC50 [3]: 0.00707 µM | IC50 (A549): > 100 µM | IC50 (MDA-MB-453): > 100 µM | Activity [5]: Active | Activity [6]: Active | Activity [32]: Active | Activity [33]: Active | Activity [34]: Tde
Compound: Cc1ncsc1-c1ccc(CNC(=O)[C@@H]2C[C@@H](O)CN2C(=O)[C@@H](NC(=O)CCCCCCCCCCC(=O)n2nc(N)c3c(-c4cccc(NC(=O)Nc5cccc(Cl)c5)c4)cccc32)C(C)(C)C)cc1
IC50 [4]: 21 µM | Activity (HEK293): Non-Toxic | Activity (EA.hy 926 [30]): Active | Activity (EA.hy 926 [35]): inactive

IC50 [3]: 0.00212 µM | IC50 (A549): > 100 µM | IC50 (MDA-MB-453): > 100 µM | Activity [5]: Dose-Dependent Effect | Activity [36]: Active | Activity [37]: Active | Activity [38]: inactive
Compound: Cc1ncsc1-c1ccc(CNC(=O)[C@@H]2C[C@@H](O)CN2C(=O)[C@@H](NC(=O)CCCCCCCCCCCCCCC(=O)n2nc(N)c3c(-c4cccc(NC(=O)Nc5cccc(Cl)c5)c4)cccc32)C(C)(C)C)cc1
IC50 [4]: 28.5 µM | Activity (HEK293): Non-Toxic

— ChEMBL document CHEMBL5257081, “Discovery of novel PROTACs based on multi-targeted angiogenesis inhibitors” (Bioorg Med Chem Lett, 2023)
